Experiment [1] can be described thus: Antibacterial activity against Francisella novicida U112 after 48 hrs. The conditions noted are these: Francisella tularensis. The experiment is classed as functional, Francisella tularensis subsp. novicida U112.
Experiment [2] can be described thus: Potentiation of FR900098-induced antibacterial activity against Francisella novicida U112 assessed as FR900098 MIC after 48 hrs. The experiment is classed as functional, Francisella tularensis subsp. novicida U112. The conditions noted are these: Francisella tularensis.
A short description of experiment [3]: Potentiation of FR900098-induced antibacterial activity against Francisella novicida U112 assessed as fold reduction in FR900098 MIC after 48 hrs. The experiment is classed as functional, Francisella tularensis subsp. novicida U112.
Experiment [4] is described as follows: Antibacterial activity against Francisella philomiragia ATCC 25015 after 48 hrs. It is filed as functional, Francisella philomiragia subsp. philomiragia ATCC 25015. As to conditions: ATCC 25015, 48 h.
Experiment [5] relates to Francisella tularensis subsp. novicida U112. Briefly: Potentiation of FR900098-induced antibacterial activity against Francisella novicida U112 assessed as reduction in FR900098 MIC at <30 uM after 48 hrs. It is filed as functional.
Experiment [6] in a line: Potentiation of FR900098-induced antibacterial activity against Francisella novicida U112 assessed as fold reduction in FR900098 MIC at 40 uM after 48 hrs. The experiment is classed as functional, Francisella tularensis subsp. novicida U112.
A short description of experiment [7]: Potentiation of FR900098-induced antibacterial activity against Francisella philomiragia ATCC 25015 assessed as fold reduction in FR900098 MIC after 48 hrs. It is filed as functional, Francisella philomiragia subsp. philomiragia ATCC 25015.
Experiment [8] relates to Francisella tularensis subsp. novicida U112. Briefly: Bactericidal activity against Francisella novicida U112 at 25% antibacterial MIC up to 24 hrs by time kill curve assay. The experiment is classed as functional.
A short description of experiment [9]: Potentiation of FR900098-induced antibacterial activity against Francisella novicida U112 assessed as FR900098 MIC at 40 uM after 48 hrs. The experiment is classed as functional, Francisella tularensis subsp. novicida U112. The conditions noted are these: Francisella tularensis.

As a reminder, the MIC is the lowest concentration found to suppress growth.

Calls of active or inactive are those of the source. The rule behind the calls is not given here.

`CCCCCCc1ccc(C2=NCCS2)cc1`: the MIC in experiment [1] is > 200 µM; in [2], 2 µg/mL. Further, the “fold change (FC)” value in experiment [3] stood at 8.

In the case of `CCCCCCc1ccc(-c2ccncc2)cc1`, the MIC in experiment [1] was 100 µM; in [2], 0.5 µg/mL.

Turning to `Brc1cccc(C2=NCCO2)c1`, the values for the MIC in experiment [1] and in experiment [2] were > 200 µM and 16 µg/mL, respectively.

For `CCCc1ccc(C2=NCCO2)cc1`, the MIC in experiment [1] was > 200 µM; in experiment [2], 16 µg/mL.

Turning to `c1ccc(/N=N/c2ccc(C3=NCCO3)cc2)cc1`, the MIC was > 200 µM in [1] and 16 µg/mL in [2].

In the case of `c1ccc2cc(C3=NCCO3)ccc2c1`, the figures for the minimum inhibitory concentration (MIC) in experiment [1] and in [2] were 100 µM and 16 µg/mL, respectively.

In the case of `CCCCc1ccc(C2=NCCO2)cc1`, the MIC is > 200 µM in experiment [1] and 4 µg/mL in [2]. Further, the “fold change (FC)” value in [3] stood at 4.

Take `CCCCCCCc1ccc(C2=NCCO2)cc1`: the minimal inhibitory concentration (MIC) came out at 100 µM in [1] and 2 µg/mL in experiment [2]. Also, in [3], the “fold change (FC)” value came to 8.

On to `CCCCCCCCCCc1ccc(C2=NCCO2)cc1`, for which the MIC is > 200 µM in [1] and 16 µg/mL in [2]. Besides, the “fold change (FC)” value in experiment [3] is given as 8.

Regarding `CCCCCc1ccc(C2=NCCS2)cc1`, the MIC in [1] was found to be 200 µM; in [2], 1 µg/mL. Further, the “fold change (FC)” value in [3] stood at 16.

In the case of `CCCCCCc1ccc(-c2cncnc2)cc1`, the MIC was 100 µM in [1] and 4 µg/mL in experiment [2]. The “fold change (FC)” value in [3] is on record as 32.

In the case of `CCCCCCc1ccc(-c2c[nH]c(N)n2)cc1`, the MIC stood at 12.5 µM in experiment [1] and 32 µg/mL in experiment [2].

For the compound `CCCCCCc1ccc(-c2ncco2)cc1`, the MIC was > 200 µM in experiment [1] and 16 µg/mL in experiment [2].

Take `Cc1ccc(C2=NCCO2)cc1`: the MIC in experiment [1] was > 200 µM; in [2], 16 µg/mL.

For `CCCCCc1ccc(-c2ncco2)cc1`, the MIC amounted to 200 µM in experiment [1] and 16 µg/mL in experiment [2].

`CCCCCCc1ccc(C2=NCCN2)cc1`: the figures for the MIC in [1] and in [2] were 100 µM and 16 µg/mL, respectively.

Turning to `CC(=O)N(O)CCCP(=O)(O)O` [FR-900098], the MIC was 1020 µg/mL in [4] and 16 µg/mL in experiment [1].

On to `CCCCCCCCc1ccc(C2=NCCO2)cc1`, for which the MIC in [1] is 200 µM; in experiment [2], 2 µg/mL. The “fold change (FC)” value in [3] is on record as 8.

In the case of `CCCCCCc1ccc(C(=O)OC)cc1`, the values for the MIC in experiment [1] and in experiment [2] were 200 µM and 8 µg/mL, respectively.

Take `c1cc(C2=NCCO2)ccn1`: the minimum inhibitory concentration (MIC) is > 200 µM in experiment [1] and 16 µg/mL in [2].

With `CCCCCCc1ccc(C2=NCCO2)cc1`, the minimal inhibitory concentration (MIC) was > 200 µM in [1] and 0.0156 µg/mL in experiment [9]. The outcome in experiment [5] and in experiment [8] was inactive. Moreover, the entries for the “fold change (FC)” value in [6] and in [7] were 1000 and 32, respectively.

As to `CN(C)c1ccc(C2=NCCO2)cc1`, the MIC is > 200 µM in [1] and 16 µg/mL in [2].

Consider `C(=C\c1ccccc1)/C1=NCCO1`, for which the values for the MIC in [1] and in experiment [2] were > 200 µM and 32 µg/mL, respectively.

In the case of `CCCCCc1ccc(C2=NCCO2)cc1`, the results for the MIC in experiment [4], in experiment [1] and in [2] were 200 µM, 200 µM and 4 µg/mL, respectively. Besides, in [7], the “fold change (FC)” value was found to be 4.

As to `CCCCCCCCCc1ccc(C2=NCCO2)cc1`, the MIC was > 200 µM in experiment [1] and 16 µg/mL in experiment [2]. In experiment [3], the “fold change (FC)” value is reported as 8.

In the case of `CCc1ccc(C2=NCCO2)cc1`, the minimal inhibitory concentration (MIC) in [1] is > 200 µM; in experiment [2], 16 µg/mL.

`CCCCCCc1ccc(-c2ncc[nH]2)cc1`: the MIC in experiment [1] was 12.5 µM; in [2], 32 µg/mL.

For `c1ccc(C2=NCCO2)cc1`, the MIC was > 200 µM in experiment [1] and 16 µg/mL in experiment [2].

`Fc1cc(C2=NCCO2)cc(F)c1F`: the minimal inhibitory concentration (MIC) is > 200 µM in [1] and 16 µg/mL in [2].

With `CCCCCCc1ccc(C2OCCO2)cc1`, the results for the MIC in experiment [1] and in experiment [2] were > 200 µM and 16 µg/mL, respectively.

Consider `Fc1cc(C2=NCCO2)ccc1C(F)(F)F`, for which the MIC was > 200 µM in experiment [1] and 16 µg/mL in experiment [2].

As for `CCCCCCc1ccc(C2SCCS2)cc1`, the MIC in experiment [1] is > 200 µM; in experiment [2] it was 16 µg/mL.

For the compound `CCCCCCc1ccc(C2=NCCCO2)cc1`, the results for the MIC in experiment [1] and in [2] were 50 µM and 4 µg/mL, respectively. Moreover, the “fold change (FC)” value in [3] turned out to be 4.

The values above are taken from ChEMBL document CHEMBL3992489, “Potentiation of the Fosmidomycin analogue FR 900098 with substituted 2-oxazolines against Francisella novicida” (2016).
